Columns and labels:
[1] = system: extensor tonic convulsions; test: Electroshock induced convulsion inhibition assay (E.S.); assay type: in vivo, mice (Cox standard strain albino male); conditions: Mus musculus, 1 h; oral dose (gavage); mice; 60 min after administration; 0.1 second, 50 milliampere electroshock through corneal electrodes; inhibition of extensor tonic convulsions in half of the animals
Source text: The compounds of Formula I are anticonvulsant agents with a high therapeutic ratio and long half-life and are therefore useful in the treatment and prevention of convulsions in mammals. In particular, the compounds are effective against tonic extensor seizures elicited by maximal electroshock and should therefore be useful for treating generalized tonic-clonic ("grand mal"), cortical focal, complex partial (temporal lobe epilepsy), simple partial (focal motor), and post-traumaticseizures in humans. […] In the electroshock induced convulsion inhibition assay (E.S.), the compound to be tested was dissolved in water (5% --sufficient hydrochloric acid was added for those compounds which were not isolated as a salt in order to effect dissolution) and administered by gavage to each of ten Cox standard strain albino male mice (18-24 g) at the dose level being investigated. Sixty minutes after compound administration, the mice were subjected to a 0.1 second, 50 milliampere electroshock through corneal electrodes. The animals were examined and evaluated immediately after the electroshock for the occurrence of clonic, flexor tonic, or extensor tonic convulsions, or death and the ED50 was determined for each compound as the dose which inhibited the occurrence of extensor tonic convulsions in one half of the animals immediately after the electroshock. For comparison, 18 milliamperes was usually sufficient to produce extensor tonic convulsions in about half of the control animals; at 50 milliamperes, almost all control animals (receiving vehicle only) died.

seizures = conditions: man, cited from earlier work

SMILES	ED50 [1]	also measured
Cl.Nc1ccc(C(=O)NC2CCCc3ccccc32)cc1 (stereo not shown) [Example 7, 4-amino-N-(1,2,3,4-tetrahydro-1-naphthalenyl)benzamide hydrochloride]	44.5 mg/kg	–
Nc1ccc(C(=O)Nc2ccc3ccccc3c2)cc1 [Example 12, 4-Amino-N-2-naphthalenylbenzamide]	> 200 mg/kg	–
Nc1ccc(C(=O)Nc2cccc3c2CCCC3)cc1 [Example 10, 4-Amino-N-(5,6,7,8-tetrahydro-1-naphthalenyl)benzamide]	100 mg/kg	–
Cl.Nc1ccc(C(=O)Nc2cccc3ccccc23)cc1 [Example 11, 4-Amino-N-1-naphthalenylbenzamide hydrochloride]	62 mg/kg	–
C[C@H](NC(=O)c1ccc(N)cc1)c1cccc2ccccc12.Cl [Example 9, (S)-4-amino-N-[1-(1-naphthalenyl)ethyl]benzamide hydrochloride]	110 mg/kg	–
O=C1NC(=O)C(c2ccccc2)(c2ccccc2)N1 [phenytoin]	–	plasma level at which ataxia is obvious (seizures; ataxia): 30000 ng/mL; plasma level at which lethargy is apparent (seizures; lethargy): about 40 mcg/ml; plasma level at which nystagmus is seen (seizures; nystagmus): around 20 mcg/ml; plasma level at which seizures are controlled (seizures): ≥ 10 µg/mL
Nc1ccc(C(=O)NC2CCc3ccccc32)cc1 (stereo not shown) [Example 8, 4-Amino-N-(2,3-dihydro-1H-inden-1-yl)benzamide]	31 mg/kg	–

From US4632939A, “Anticonvulsant agents” (Eli Lilly and Company, priority 1985, dated 1986)
